{
  "source": "patent US7247640B2",
  "about": "“Medicament for treatment of bone marrow suppression, for treatment of infectious diseases and for increasing the number of leukocytes” (Nippon Kayaku Kabushiki Kaisha, priority 2001, dated 2007)",
  "format_in_all_cases": "in vivo, ICR strain male mice (Crj:CD-1)",
  "key": {"leukocytes [1]": {"system": "leukocytes", "test": "Test for evaluating an efficacy on drug-induced leukopenia (cyclophosphamide)", "settings": "for number of leukocytes, percentage based on Day 0 / number of leukocytes (mean ± S.D): cyclophosphamide 200 mg/kg i.p. Day 0", "protocol": "The effect of sulphostin [3(S)-amino-1-((R)-amino(sulfoamino)phosphinyl)-2-piperidone] on drug-induced leukopenia was evaluated according to the method of Okabe et al. (Yakuri to Chiryo (Japanese Pharmacology and Therapeutics) Vol. 19, No. 6, p. 55, 1991).\nICR strain male mice (Crj:CD-1) aged 8 weeks were used in the test. The animals were divided into three groups of 3 or 4 animals per group.\nOn Day 0, cyclophosphamide was intraperitoneally administered once to all the groups in a dose of 200 mg/kg. From the next day, the following were intravenously and repeatedly administered to the groups, respectively, for 5 days (Day 1 to 5); the first group (a control group): physiological saline, the second group: sulphostin (30 mg/kg/day), and the third group: sulphostin (100 mg/kg/day). Blood was drawn from the posterior-eyehole venous plexus on Day 0 (before the administration of cyclophosphamide) and Days 2, 4, 6 and 8 (the blood drawing, however, was carried out only on Days 0, 4 and 6 in the case of the second group), and the number of leukocytes was periodically measured to investigate the leukocyte-increasing effect of sulphostin relative to a decrease of leukocytes caused by cyclophosphamide.\nThe data are expressed as the mean±S.D and percentages based on the number of leukocytes on Day 0. ND refers to no data."}, "leukocytes [2]": {"system": "leukocytes", "test": "Test for investigating the increase of leukocytes in normal mice", "settings": "blood on day after last administration", "protocol": "ICR strain male mice (Crj:CD-1) aged 7 weeks were used in the test. The animals were divided into 5 groups of 4 animals per group. The following were intravenously and repeatedly administered to the groups, respectively, for 5 days; the first group: physiological saline as solvent, the second group: sulphostin (2 mg/kg/day), the third group: sulphostin (10 mg/kg/day), the fourth group: sulphostin (50 mg/kg/day), and the fifth group: sulphostin (250 mg/kg/day). On the day subsequent to the last day of the administration period, blood was drawn from the abdominal aorta under anesthesia and the number of leukocytes was measured."}, "G-CSF": {"system": "G-CSF", "test": "Test for investigating the increase of G-CSF concentration in normal mice (plasma, mouse G-CSF ELISA)", "settings": "blood on day after completion", "protocol": "ICR strain male mice (Crj:CD-1) aged 7 weeks were used in the test. The animals were divided into 4 groups of 5 animals per group. The following were intravenously and repeatedly administered to the groups, respectively, for 5 days; the first group: physiological saline as solvent, the second group: sulphostin (10 mg/kg/day), the third group: sulphostin (30 mg/kg/day), and the fourth group: sulphostin (90 mg/kg/day). On the day subsequent to completion of the administration, blood was drawn from the abdominal aorta under anesthesia. The blood obtained was centrifuged to collect plasma, and G-CSF was measured by the use of a mouse G-CSF ELISA measuring kit (R & D SYSTEMS Inc.)."}, "[3]": {"settings": "sulphostin 10 mg/kg/day i.v. for 5 days"}},
  "data": [
    {"smiles": "N[C@H]1CCCN([P@@](N)(=O)NS(=O)(=O)O)C1=O", "note": "[Sulphostin, 3(S)-amino-1-((R)-amino(sulfoamino)-phosphinyl)-2-piperidone]", "values": [
      {"measurement": "number of leukocytes, percentage based on Day 0", "setting": "leukocytes [1]; sulphostin 30 mg/kg/day i.v. Day 1 to 5, Day 0 (before cyclophosphamide)", "value": 100, "unit": "%"},
      {"measurement": "number of leukocytes (mean ± S.D)", "setting": "leukocytes [1]; sulphostin 30 mg/kg/day i.v. Day 1 to 5, Day 0 (before cyclophosphamide), n = 3", "value": "44 ± 7.1 ×100/millimeter cube"},
      {"measurement": "number of leukocytes, percentage based on Day 0", "setting": "leukocytes [1]; sulphostin 30 mg/kg/day i.v. Day 1 to 5, Day 4", "value": 30, "unit": "%"},
      {"measurement": "number of leukocytes (mean ± S.D)", "setting": "leukocytes [1]; sulphostin 30 mg/kg/day i.v. Day 1 to 5, Day 4, n = 3", "value": "13 ± 12.5 ×100/millimeter cube"},
      {"measurement": "number of leukocytes, percentage based on Day 0", "setting": "leukocytes [1]; sulphostin 30 mg/kg/day i.v. Day 1 to 5, Day 6", "value": 95, "unit": "%"},
      {"measurement": "number of leukocytes (mean ± S.D)", "setting": "leukocytes [1]; sulphostin 30 mg/kg/day i.v. Day 1 to 5, Day 6, n = 3", "value": "42 ± 14.5 ×100/millimeter cube"},
      {"measurement": "number of leukocytes, percentage based on Day 0", "setting": "leukocytes [1]; sulphostin 100 mg/kg/day i.v. Day 1 to 5, Day 0 (before cyclophosphamide)", "value": 100, "unit": "%"},
      {"measurement": "number of leukocytes (mean ± S.D)", "setting": "leukocytes [1]; sulphostin 100 mg/kg/day i.v. Day 1 to 5, Day 0 (before cyclophosphamide), n = 4", "value": "38 ± 17.2 ×100/millimeter cube"},
      {"measurement": "number of leukocytes, percentage based on Day 0", "setting": "leukocytes [1]; sulphostin 100 mg/kg/day i.v. Day 1 to 5, Day 2", "value": 55, "unit": "%"},
      {"measurement": "number of leukocytes (mean ± S.D)", "setting": "leukocytes [1]; sulphostin 100 mg/kg/day i.v. Day 1 to 5, Day 2, n = 4", "value": "21 ± 5.1 ×100/millimeter cube"},
      {"measurement": "number of leukocytes, percentage based on Day 0", "setting": "leukocytes [1]; sulphostin 100 mg/kg/day i.v. Day 1 to 5, Day 4", "value": 26, "unit": "%"},
      {"measurement": "number of leukocytes (mean ± S.D)", "setting": "leukocytes [1]; sulphostin 100 mg/kg/day i.v. Day 1 to 5, Day 4, n = 4", "value": "10 ± 6.3 ×100/millimeter cube"},
      {"measurement": "number of leukocytes, percentage based on Day 0", "setting": "leukocytes [1]; sulphostin 100 mg/kg/day i.v. Day 1 to 5, Day 6", "value": 126, "unit": "%"},
      {"measurement": "number of leukocytes (mean ± S.D)", "setting": "leukocytes [1]; sulphostin 100 mg/kg/day i.v. Day 1 to 5, Day 6, n = 4", "value": "48 ± 23.8 ×100/millimeter cube"},
      {"measurement": "number of leukocytes, percentage based on Day 0", "setting": "leukocytes [1]; sulphostin 100 mg/kg/day i.v. Day 1 to 5, Day 8", "value": 668, "unit": "%"},
      {"measurement": "number of leukocytes (mean ± S.D)", "setting": "leukocytes [1]; sulphostin 100 mg/kg/day i.v. Day 1 to 5, Day 8, n = 4", "value": "254 ± 75.5 ×100/millimeter cube"},
      {"measurement": "restoration of the number of leukocytes to the initial value after the administration of cyclophosphamide, time required", "setting": "leukocytes [1]; sulphostin-treated groups (30 and 100 mg/kg/day i.v.), control group requires 8 days", "value": 6, "unit": "days"},
      {"measurement": "number of leukocytes larger than that of the control group by factor", "setting": "leukocytes [2]; sulphostin 2 mg/kg/day i.v. for 5 days", "value": 1.4},
      {"measurement": "number of leukocytes larger than that of the control group by factor", "setting": "leukocytes [2]; [3]", "value": 1.9},
      {"measurement": "number of leukocytes larger than that of the control group by factor", "setting": "leukocytes [2]; sulphostin 50 mg/kg/day i.v. for 5 days", "value": 4.9},
      {"measurement": "number of leukocytes larger than that of the control group by factor", "setting": "leukocytes [2]; sulphostin 250 mg/kg/day i.v. for 5 days", "value": 5.9},
      {"measurement": "G-CSF level higher than that of the control group by factor", "setting": "G-CSF; [3]", "value": 1.03},
      {"measurement": "G-CSF level higher than that of the control group by factor", "setting": "G-CSF; sulphostin 30 mg/kg/day i.v. for 5 days", "value": 6.1},
      {"measurement": "G-CSF level higher than that of the control group by factor", "setting": "G-CSF; sulphostin 90 mg/kg/day i.v. for 5 days", "value": 7.0}
    ]}
  ]
}
